Paper PMC13171625, “Breaking the ‘rule-of-five’ to access bridged bicyclic heteroaromatic bioisosteres” (Nature Synthesis, 2026)
Read-outs that look alike come from different tables or passages of the source.

How the values were obtained:
[1] = reference substances used to obtain the regression equation; cited from earlier work
[2] = Metabolic stability in human liver microsomes; conditions: for Remaining (T60): 60 min; for Remaining (NCF60): 1 h incubation, human liver microsomes, no co-factor (no NADPH); for CLint scaled at 1 μM / half-life at 1 μM / microsomal CLint at 1 μM / remaining at 5 min, 1 μM / remaining at 0.5 h, 1 μM / remaining at 0.75 h, 1 μM: human
[3] = LogP Assay (HPLC retention, pH 7.4); conditions: X-Bridge C18 column (retention-time method)
[4] = human, microsomes
[5] = in vitro; conditions: human, microsomes
[6] = physchem; conditions: pH 7.4
[7] = human liver microsomes with NADPH

| SMILES | Log P of reference substance [1] | Remaining (T60) [2, 7] [%] | Remaining (NCF60) [2] [%] | CLint scaled at 1 μM ([2]; liver microsomes) [mL/min/kg] | half-life at 1 μM ([2]; liver microsomes) [min] | remaining at 5 min, 1 μM ([2]; liver microsomes) [%] | remaining at 0.5 h, 1 μM ([2]; liver microsomes) [%] | remaining at 0.75 h, 1 μM ([2]; liver microsomes) [%] | further results |
| --- | --- | --- | --- | --- | --- | --- | --- | --- | --- |
| CC(=O)c1ccncc1 [4-Acetylpyridine] | 0.5 |  |  |  |  |  |  |  |  |
| COc1ccc(S(=O)(=O)N2CCN(C(=O)OCc3ccccc3)CC2C(=O)NO)cc1 (stereo not shown) [DB04232] |  | 30.6 | 110.2 | 34.6 | 36 | 82 | 59.3 | 38.5 | microsomal CLint at 1 μM ([2]; liver microsomes): 38.5 µL/min/mg; chromatographic logP [3]: 1.43 |
| O=C(O)Cc1ccccc1Nc1c(Cl)cccc1Cl [Diclofenac] |  | 0.1 | 96.1 | 209 | 6 | 49.4 | 2.6 | 0.5 | %Remaining ([2]; 15 min, human liver microsomes with NADPH): 15.6%; CLint(mic) (microsome intrinsic clearance) ([2]; human liver microsomes 0.5 mg/mL, 1 μM compound, NADPH): 232.5 µL/min/mg |
| CCc1ccccc1 [Ethylbenzene] | 3.2 |  |  |  |  |  |  |  |  |
| COc1ccc(S(=O)(=O)N2C3CN(C(=O)OCc4ccccc4)CC2(C(=O)NO)C3)cc1 (stereo not shown) [compound 68] |  |  |  |  |  |  |  |  | microsomal CLint at 1 μM ([2]; microsomes): 38.1 µL/min/mg; metabolic stability compared with DB04232 ([4]; 1 μM): at least as metabolically stable as DB04232; Remaining (NCF60) ([4]; 1 h, 1 μM): 86.9%; Remaining (T60) ([4]; 1 h, 1 μM): 28.3%; CLint scaled at 1 μM [5]: 34.3 mL/min/kg; half-life at 1 μM [5]: 36.3 min; remaining at 5 min, 1 μM [5]: 71.3%; remaining at 0.5 h, 1 μM [5]: 45.9%; remaining at 0.75 h, 1 μM [5]: 36.6%; chromatographic logP [6]: 0.946 |
